Data on 57 substances can be found in patent publication US11607446B2, “Personalized immunotherapy against several neuronal and brain tumors” (Immatics Biotechnologies GmbH, priority 2013, dated 2023).

Where no end group is shown, it is not given here.

For the test, the system named is CD8+ T cells. Kind of test: In vitro immunogenicity of HLA-A*02 class I peptides: in vitro T-cell priming with aAPCs loaded with peptide/MHC complexes and anti-CD28 antibody, pMHC multimer readout. It is filed as cell-based, human. The note with it: HLA-A*02 peptides; for Donors / Donors (percentage in brackets): healthy donors; for Donors: specific multimer+ CD8+ T-cell line after in vitro stimulation; for Wells: in vitro stimulated wells of healthy donors' CD8+ T cells, specific multimer+ readout.

Regarding “AIIDGVESV (listed as Homo sapiens) [PTP-003]”, the Donors result was “++++ (>70% = ++++)” and the Wells entry is “+ (<20% = +)”.
Regarding “ALADIAVGV (listed as Homo sapiens) [ADORA3-001]”, the Donors entry is recorded as “++ (20%-49 % = ++)” and the Wells entry is recorded as “+ (<20% = +)”.
The corresponding values for “ALAFKLDEV (listed as Homo sapiens) [SLC10A4-001]” are “+++ (50%-70% = +++)” and “++ (20%-49 % = ++)”.
The corresponding values for “ALFNKGGSVFL (listed as Homo sapiens) [GPR98-001]” are “++ (20%-49 % = ++)” and “+ (<20% = +)”.
The corresponding values for “ALGDIREV (listed as Homo sapiens) [ANKRD40-001]” are “+++ (50%-70% = +++)” and “+ (<20% = +)”.
In the case of “ALTTLMHQL (listed as Homo sapiens) [PTP-001]”, the Donors entry is “++ (20%-49 % = ++)” and the Wells entry was “+ (<20% = +)”.
For “ALWAWPSEL (listed as Homo sapiens) [BCA-002]”, the “Donors (percentage in brackets)” value was 100%, the Donors result was “++++ (>70% = ++++)” and the Wells result is “++++ (>70% = ++++)”.
Consider “AMTQLLAGV (listed as Homo sapiens) [TNC-001]”, for which the Donors entry is reported as “++ (20%-49 % = ++)” and the Wells entry was “+ (<20% = +)”.
As for “AVAPGPWKV (listed as Homo sapiens) [MAGI2-001]”, the Donors result is given as “++ (20%-49 % = ++)” and the Wells entry was “+ (<20% = +)”.
The corresponding values for “AVVEFLTSV (listed as Homo sapiens) [DROSHA-001]” are “++ (20%-49 % = ++)” and “+ (<20% = +)”.
The corresponding values for “EILDYIYEV (listed as Homo sapiens) [ASIC4-001]” are “++ (20%-49 % = ++)” and “+ (<20% = +)”.
The corresponding values for “FLDSKFYLL (listed as Homo sapiens) [MAP1B-001]” are “+++ (50%-70% = +++)” and “+ (<20% = +)”.
On to “FLLPDTDGLTAL (listed as Homo sapiens) [PTP-012]”, for which the Donors entry is listed as “++ (20%-49 % = ++)” and the Wells entry is “+ (<20% = +)”.
On to “FLVDGSWSI (listed as Homo sapiens) [COL20-001]”, for which the Donors entry is listed as “++ (20%-49 % = ++)” and the Wells result is reported as “+ (<20% = +)”.
The corresponding values for “FLWSDGVPL (listed as Homo sapiens) [BCA-003]” are “++ (20%-49 % = ++)” and “+ (<20% = +)”.
The corresponding values for “FLYKVILSL (listed as Homo sapiens) [PTP-002]” are “+++ (50%-70% = +++)” and “+ (<20% = +)”.
The corresponding values for “FLYNEALYSL (listed as Homo sapiens) [DPP3-001]” are “+++ (50%-70% = +++)” and “+ (<20% = +)”.
For “GLDPSSGAIHV (listed as Homo sapiens) [PCDHGC5-001]”, the “Donors (percentage in brackets)” value was determined as 100%, the Donors entry is “++++ (>70% = ++++)” and the Wells entry was “+ (<20% = +)”.
As for “GLLDQIQAL (listed as Homo sapiens) [NLGN4X-002]”, the Donors result is given as “++ (20%-49 % = ++)” and the Wells result is on record as “+ (<20% = +)”.
The corresponding values for “GLMEKIKEL (listed as Homo sapiens) [CPT1C-001]” are “++ (20%-49 % = ++)” and “+ (<20% = +)”.
In the case of “GLPSGAPPGV (listed as Homo sapiens) [MTSS1L-001]”, the “Donors (percentage in brackets)” value is 100%, the Donors entry is reported as “++++ (>70% = ++++)” and the Wells result was “+++ (50%-70% = +++)”.
As for “GLSEFTEYL (listed as Homo sapiens) [MAP1B-002]”, the Donors result is recorded as “++ (20%-49 % = ++)” and the Wells entry is reported as “+ (<20% = +)”.
As to “GLWHHQTEV (listed as Homo sapiens) [NRC AM-001]”, the “Donors (percentage in brackets)” value is 100%, the Donors entry was “++++ (>70% = ++++)” and the Wells entry is recorded as “+ (<20% = +)”.
For the substance “GMMTAILGV (listed as Homo sapiens) [SLC35E1-002]”, the Donors entry was “++ (20%-49 % = ++)” and the Wells result was “+ (<20% = +)”.
Regarding “GVLENIFGV (listed as Homo sapiens) [PCNXL3-001]”, the Donors entry is on record as “++ (20%-49 % = ++)” and the Wells entry is on record as “+ (<20% = +)”.
With “ILFEINPKL (listed as Homo sapiens) [ABCA13-001]”, the Donors result was “++ (20%-49 % = ++)” and the Wells result is reported as “+ (<20% = +)”.
The corresponding values for “ILFPDIIARA (listed as Homo sapiens) [MAGEF1-001]” are “++++ (>70% = ++++)” and “++ (20%-49 % = ++)”.
The corresponding values for “ILIDWLVQV (listed as Homo sapiens) [CCNB1-002]” are “+++ (50%-70% = +++)” and “+ (<20% = +)”.
The corresponding values for “KIQEILTQV (listed as Homo sapiens) [IGF2BP3-001]” are “+++ (50%-70% = +++)” and “+ (<20% = +)”.
In the case of “KLADQYPHL (listed as Homo sapiens) [SOX-001]”, the Donors entry is listed as “++++ (>70% = ++++)” and the Wells entry is listed as “+ (<20% = +)”.
The corresponding values for “KLCEGFNEV (listed as Homo sapiens) [CHCHD2-005]” are “+++ (50%-70% = +++)” and “+ (<20% = +)”.
The corresponding values for “KLFDSDPITVTV (listed as Homo sapiens) [CLU-001]” are “++ (20%-49 % = ++)” and “+ (<20% = +)”.
The corresponding values for “KLGDFGLATVV (listed as Homo sapiens) [DCA-001]” are “++ (20%-49 % = ++)” and “+ (<20% = +)”.
Turning to “KLTDIQIEL (listed as Homo sapiens) [JAK-001]”, the Donors entry was “++ (20%-49 % = ++)” and the Wells result is given as “+ (<20% = +)”.
The corresponding values for “KLVEFDFLGA (listed as Homo sapiens) [TACC3-001]” are “++ (20%-49 % = ++)” and “+ (<20% = +)”.
The corresponding values for “KVFAGIPTV (listed as Homo sapiens) [PTP-005]” are “++++ (>70% = ++++)” and “++ (20%-49 % = ++)”.
With “KVFDEVIEV (listed as Homo sapiens) [GYG2-001]”, the Donors entry is reported as “++ (20%-49 % = ++)” and the Wells result was “+ (<20% = +)”.
For the substance “LLLGSPAAA (listed as Homo sapiens) [SEZ6L-001]”, the Donors result is recorded as “++++ (>70% = ++++)” and the Wells entry is “+ (<20% = +)”.
The corresponding values for “LLQDRLVSV (listed as Homo sapiens) [PLEKHA4-001]” are “+++ (50%-70% = +++)” and “+ (<20% = +)”.
“LLWGNAIFL (listed as Homo sapiens) [KIF1A-001]”: the Donors result was “+++ (50%-70% = +++)” and the Wells result is reported as “++ (20%-49 % = ++)”.
The corresponding values for “LLYDAVHIV (listed as Homo sapiens) [GRIK3-001]” are “++++ (>70% = ++++)” and “+ (<20% = +)”.
Take “LLYTGDLEAL (listed as Homo sapiens) [NPAS3-001]”: the Donors result is on record as “++ (20%-49 % = ++)” and the Wells entry was “+ (<20% = +)”.
The corresponding values for “LTAPPEALLMV (listed as Homo sapiens) [NOC4-001]” are “+++ (50%-70% = +++)” and “+ (<20% = +)”.
The corresponding values for “LTFGDVVAV (listed as Homo sapiens) [FABP7-001]” are “++++ (>70% = ++++)” and “+ (<20% = +)”.
The corresponding values for MIWEHNVEV [PTP-013] are “++++ (>70% = ++++)” and “+ (<20% = +)”.
With “MLFGHPLLVSV (listed as Homo sapiens) [USP11-001]”, the Donors entry is “++++ (>70% = ++++)” and the Wells entry is on record as “++ (20%-49 % = ++)”.
The corresponding values for “NILEQIVSV (listed as Homo sapiens) [GRI-001]” are “++ (20%-49 % = ++)” and “+ (<20% = +)”.
Turning to “NLDTLMTYV (listed as Homo sapiens) [NLGN4X-001]”, the “Donors (percentage in brackets)” value is 100%, the Donors result was “++++ (>70% = ++++)” and the Wells entry is listed as “++ (20%-49 % = ++)”.
With “NLLAEIHGV (listed as Homo sapiens) [DPYSL4-001]”, the Donors entry is “++ (20%-49 % = ++)” and the Wells entry is “+ (<20% = +)”.
For the substance “RLGIKPESV (listed as Homo sapiens) [CSRP2-001]”, the “Donors (percentage in brackets)” value is 100%, the Donors result is given as “++++ (>70% = ++++)” and the Wells result is given as “++ (20%-49 % = ++)”.
In the case of “RLISKFDTV (listed as Homo sapiens) [EIF4E-001]”, the Donors result was “+++ (50%-70% = +++)” and the Wells result is recorded as “+ (<20% = +)”.
The corresponding values for RVADYIVKV [SLC10A4-002] are “+++ (50%-70% = +++)” and “+ (<20% = +)”.
The corresponding values for “RVAS*PTSGV (RVASPTSGV; not fully specified (residue 4); printed as RVAS*PTSGV; listed as Homo sapiens) [IRS-001]” are “+++ (50%-70% = +++)” and “+ (<20% = +)”.
The corresponding values for “SLADFMQEV (listed as Homo sapiens) [CNOT1-002]” are “++ (20%-49 % = ++)” and “+ (<20% = +)”.
On to “SLAERLFFQV (listed as Homo sapiens) [NAT8L-001]”, for which the Donors entry is on record as “++++ (>70% = ++++)” and the Wells entry is recorded as “+ (<20% = +)”.
The corresponding values for “SLDTLMTYV (listed as Homo sapiens) [NLGN4Y-001]” are “++++ (>70% = ++++)” and “+ (<20% = +)”.
For the substance “SLGLFLAQV (listed as Homo sapiens) [SCARA3-001]”, the Donors result is recorded as “++ (20%-49 % = ++)” and the Wells entry is listed as “+ (<20% = +)”.
